{
  "source": "patent US4072757A",
  "about": "“N^2 alkoxynaphthylsulfonyl-L-argininamides and the pharmaceutically acceptable salts thereof” (Mitsubishi Chemical Industries Limited, priority 1974, dated 1978)",
  "data": [
    {"test_system": "not listed separately", "test": "acute toxicity (LD50) by intraperitoneal administration in mice", "conditions": "mouse, in vivo, ip, mice (male, 20 g)", "procedure": "On the other hand, LD50 values for N^2 -dansyl-N-butyl-L-argininamide and N^2 -dansyl-N-methyl-N-butyl-L-argininamide are 75 and 70 milligrams per kilogram, respectively. The therapeutic agents of this invention may be administered to mammals including humans, alone or in combination with pharmaceutically acceptable carriers, the proportion of which is determined by the solubility and chemical nature of the compound, chosen route of administration and standard pharmaceutical practice. For example, the compounds may be injected parenterally, that is, intramuscularly, intravenously or subcutaneously. For parenteral administration, the compounds may be used in the form of sterile solutions containing other solutes, for example, sufficient saline or glucose to make the solution isotonic. The compounds may be administered orally in the form of tablets, capsules, or granules containing suitable excipients such as starch, lactose, white sugar and the like. The compounds may be administered sublingually in the form of troches or lozenges in which each active ingredient is mixed with sugar or corn syrups, flavoring agents and dyes, and then dehydrated sufficiently to make the mixture suitable for pressing into solid form. The compounds may be administered orally in the form of solutions which may contain coloring and flavoring agents.", "units": {"LD50": "mg/kg"}, "values": [
      {"smiles": "COc1cc2ccc(S(=O)(=O)N[C@@H](CCCNC(=N)N)C(=O)N3CCCCC3C(=O)O)cc2cc1OC", "note": "(stereo partly drawn) [Sample 2, 1-[N^2-(6,7-dimethoxy-2-naphthylsulfonyl)-L-arginyl]-2-piperidinecarboxylic acid]", "LD50": 1500},
      {"smiles": "CCOC(=O)C1CC(C)CCN1C(=O)[C@H](CCCNC(=N)N)NS(=O)(=O)c1ccc2ccc(OC)cc2c1", "note": "(stereo partly drawn) [Sample 6, Ethyl 1-[N^2-(7-methoxy-2-naphthylsulfonyl)-L-arginyl]-4-methyl-2-piperidinecarboxylate]", "LD50": "670 to 1000"},
      {"smiles": "COc1ccc2cc(S(=O)(=O)N[C@@H](CCCNC(=N)N)C(=O)N3CCC(C)CC3C(=O)O)cc(OC)c2c1", "note": "(stereo partly drawn) [Sample 11, 1-[N^2-(4,6-dimethoxy-2-naphthylsulfonyl)-L-arginyl]-4-methyl-2-piperidinecarboxylic acid]", "LD50": "670 to 1000"}
    ]},
    {"target": "T1, thrombin (Bos taurus, UniProt P00735)", "T1 construct": "clotting of bovine fibrinogen", "test": "fibrinogen coagulation time", "assay_type": "biochemical", "conditions": "bovine fibrinogen, thrombin 5 units/ml, borate saline buffer pH 7.4, 25° C; normal coagulation time 50-55 seconds to 100-110 seconds; read-out: Concentration required to prolong the coagulation time by a factor of two", "procedure": "The measurement of the fibrinogen coagulation time was conducted as follows:\nImmediately after mixing, the reaction mixture was transferred from the ice bath to a bath maintained at 25° C. Coagulation times were taken as the period between the time of transference to the 25° C bath and the time of the first appearance of fibrin threads.\nThe term \"concentration required to prolong the coagulation time by a factor of two\" is the concentration of an active ingredient required to prolong the normal coagulation time 50-55 seconds to 100-110 seconds.", "units": {"IC (2-fold clotting time)": "µM"}, "values": [
      {"smiles": "COc1ccc2cc(S(=O)(=O)N[C@@H](CCCNC(=N)N)C(=O)N3CCCCC3C(=O)O)ccc2c1", "note": "(stereo partly drawn) [Sample 4, 1-[N^2-(6-methoxy-2-naphthylsulfonyl)-L-arginyl]-2-piperidinecarboxylic acid]", "IC (2-fold clotting time)": 3},
      {"smiles": "COc1cc2ccc(S(=O)(=O)N[C@@H](CCCNC(=N)N)C(=O)N3CCC(C)CC3C(=O)O)cc2cc1OC", "note": "(stereo partly drawn) [Sample 5, 1-[N^2-(6,7-dimethoxy-2-naphthylsulfonyl)-L-arginyl]-4-methyl-2-piperidinecarboxylic acid]", "IC (2-fold clotting time)": 0.4},
      {"smiles": "COc1ccc2ccc(S(=O)(=O)N[C@@H](CCCNC(=N)N)C(=O)N3CCC(C)CC3C(=O)O)cc2c1", "note": "(stereo partly drawn) [Sample 7, 1-[N^2-(7-methoxy-2-naphthylsulfonyl)-L-arginyl]-4-methyl-2-piperidinecarboxylicacid]", "IC (2-fold clotting time)": 0.15},
      {"smiles": "COc1ccc2cc(S(=O)(=O)N[C@@H](CCCNC(=N)N)C(=O)N3CCC(C)CC3C(=O)O)cc(OC)c2c1", "note": "(stereo partly drawn) [Sample 11, 1-[N^2-(4,6-dimethoxy-2-naphthylsulfonyl)-L-arginyl]-4-methyl-2-piperidinecarboxylic acid]", "IC (2-fold clotting time)": 0.35},
      {"smiles": "CCCC1CCN(C(=O)[C@H](CCCNC(=N)N)NS(=O)(=O)c2ccc3cc(OC)c(OC)cc3c2)C(C(=O)O)C1", "note": "(stereo partly drawn) [Sample 19, 1-[N^2-(6,7-dimethoxy-2-naphthylsulfonyl)-L-arginyl]-4-propyl-2-piperidinecarboxylic acid]", "IC (2-fold clotting time)": 0.5},
      {"smiles": "COc1cc2ccc(S(=O)(=O)N[C@@H](CCCNC(=N)N)C(=O)N3CCC(c4ccccc4)CC3C(=O)O)cc2cc1OC", "note": "(stereo partly drawn) [Sample 30, 1-[N^2-(6,7-dimethoxy-2-naphthylsulfonyl)-L-arginyl]-4-phenyl-2-piperidinecarboxylic acid]", "IC (2-fold clotting time)": 12}
    ]}
  ]
}
